Measurements taken from patent US20080207632A1, “PROTEIN KINASE INHIBITORS” (SUPERGEN, INC., priority 2006, published 2008).
pIC50: −log10 of the molar value. Where two headings read alike, the source gives them in different places.

Tests used:
Format in all cases: cell-based
MiaPaCa-2 (pancreas) = experiment: in vitro cytotoxicity assay (Cell-Titer-Glo), MiaPaCa-2; details: Homo sapiens, MIA PaCa-2, 96 h, 4 days
Protocol: (§1) To evaluate cell killing of cancer cell lines, an in vitro cytotoxicity assay was performed. The tumor cell lines used were purchased from the American Type Culture Collection, and are identified as follows: Panc-1 (pancreas), MiaPaCa-2 (pancreas), MCF-7 (breast), HT-29 (colon), U2-OS (osteosarcoma), OVCAR-3 (ovary), HepG2 (hepatocellular carcinoma) and TT (medullary thyroid). The assay utilized the Cell-Titer-Glo Non-Radioactive Cell Proliferation Assay (Promega Corp., Madison, Wis.). First the cells were cultured in RPMI 1640 medium (Cat# 21870-076, Invitrogen Corporation) supplemented with 300 mg/L L-glutamine, 100 units/ml penicillin, 100 μg/ml streptomycin and 10% fetal bovine serum. All the cell lines were incubated in a humidified incubator at 37° C. with 5% CO2 atmosphere.
(§2) Cells were plated at a density of 2000 to 10000 cells per well, depending on their growth rate, in 0.09 mL medium on day 0 in 96-well Microlite TCT microtiter plates (7418, Thermo Labsystems, Franklin, Mass.). On day 1, 10 μL of serial dilutions of the individual compounds were added to the plates in replicates of 3. After incubation for 4 days at 37° C. in a humidified incubator, the cells were lysed in the Cell-Titer-Glo reagent, which also contains luciferase enzyme. The luciferase reaction utilizes ATP released from lysed cells to produce light, the intensity of which is linearly related to the amount of ATP. Thus, the amount of light produced is a reflection of the number of cells remaining in the well after drug treatment. This luminescence was measured using a Luminoskan luminometer (Thermo Electron Corp., Vantaa, Finland) Data were expressed as the percentage of survival of control cells calculated from the luminescence corrected for background. The surviving percent of cells was determined by dividing the mean luminescence values of the treated wells by the mean luminescence values of the control and multiplying by 100.
as §1, with “Briefly,” for “To evaluate cell killing of cancer cell lines, an in vitro cytotoxicity assay was performed. The”, “thyroid), PC-3 (prostate) and A549 (lung).” for “thyroid).”
as §1, with “carcinoma), PC-3 (prostate),” for “carcinoma)”, “A549 (lung).” for “TT (medullary thyroid).”
(§3) Cells were plated at a density of 2000 to 10000 cells per well, depending on their growth rate, in 0.09 mL medium on day 0 in 96-well Microlite TCT microtiter plates (#7418, Thermo Labsystems, Franklin, Mass.). On day 1, 10 μL of serial dilutions of the individual compounds were added to the plates in replicates of 3. After incubation for 4 days at 37° C. in a humidified incubator, the cells were lysed in the Cell-Titer-Glo reagent, which also contains luciferase enzyme. […]

U2-OS (osteosarcoma) = experiment: in vitro cytotoxicity assay (Cell-Titer-Glo), U2-OS; details: Homo sapiens, U2OS
Protocol: as §1, §2
as §1, with “Briefly,” for “To evaluate cell killing of cancer cell lines, an in vitro cytotoxicity assay was performed. The”, “thyroid), PC-3 (prostate) and A549 (lung).” for “thyroid).”
as §1, with “carcinoma), PC-3 (prostate),” for “carcinoma)”, “A549 (lung).” for “TT (medullary thyroid).”
as §3

PC-3 (prostate) = experiment: in vitro cytotoxicity assay (Cell-Titer-Glo), PC-3
Protocol: as §1, with “Briefly,” for “To evaluate cell killing of cancer cell lines, an in vitro cytotoxicity assay was performed. The”, “thyroid), PC-3 (prostate) and A549 (lung).” for “thyroid).”
as §2
as §1, with “carcinoma), PC-3 (prostate),” for “carcinoma)”, “A549 (lung).” for “TT (medullary thyroid).”
as §2, with “(#7418,” for “(7418,”, “100. […]” for “100.”

OVCAR-3 (ovary) = experiment: in vitro cytotoxicity assay (Cell-Titer-Glo), OVCAR-3; details: Homo sapiens
Protocol: as §1, §2
as §1, with “Briefly,” for “To evaluate cell killing of cancer cell lines, an in vitro cytotoxicity assay was performed. The”, “thyroid), PC-3 (prostate) and A549 (lung).” for “thyroid).”
as §1, with “carcinoma), PC-3 (prostate),” for “carcinoma)”, “A549 (lung).” for “TT (medullary thyroid).”
as §3

A549 (lung) = experiment: in vitro cytotoxicity assay (Cell-Titer-Glo), A549; details: Homo sapiens
Protocol: as §1, with “Briefly,” for “To evaluate cell killing of cancer cell lines, an in vitro cytotoxicity assay was performed. The”, “thyroid), PC-3 (prostate) and A549 (lung).” for “thyroid).”
as §2
as §1, with “carcinoma), PC-3 (prostate),” for “carcinoma)”, “A549 (lung).” for “TT (medullary thyroid).”
as §2, with “(#7418,” for “(7418,”, “100. […]” for “100.”

[1] = Example 20, read-out: Cell-based IC50 values MiaPaCa-2
[2] = 96 h, Example 20, 4 days, read-out: Cell-based IC50 values U2-Os
[3] = 96 h, Example 20, 4 days, read-out: Cell-based IC50 values PC-3
[4] = OVCAR-3, 96 h, Example 20, 4 days, read-out: Cell-based IC50 values OVCAR-3
[5] = A549, 96 h, Example 20, 4 days, read-out: Cell-based IC50 values A549
[6] = Table 9, read-out: IC50 MiaPaCa-2
[7] = 96 h, Table 9, 4 days, read-out: IC50 U2-OS
[8] = 96 h, Table 9, 4 days, read-out: IC50 PC-3
[9] = OVCAR-3, 96 h, Table 9, 4 days, read-out: IC50 OVCAR-3
[10] = A549, 96 h, Table 9, 4 days, read-out: IC50 A549

CC(=O)NS(=O)(=O)c1ccc(NC(=S)N2CCN(c3ncnc4[nH]c5cc(C(F)(F)F)c(Cl)cc5c34)CC2)cc1 [Compound 1-1, 4-(6-Chloro-7-trifluoromethyl-9H-pyrimido[4,5-b]indol-4-yl)-piperazine-1-carbothioic acid (4-acetylsulfamoyl-phenyl)-amide]
pIC50 (MiaPaCa-2 (pancreas); Example 18, read-out: calculated IC50 MiaPaCa-2): 4.18 | pIC50 (MiaPaCa-2 (pancreas); [1]): 4.73 | pIC50 (U2-OS (osteosarcoma); 96 h, Example 18, 4 days, read-out: calculated IC50 U2-OS): 4.59 | pIC50 (U2-OS (osteosarcoma); [2]): 4.88 | pIC50 (U2-OS (osteosarcoma); Table 10, 96 hours, read-out: IC50 U2-Os (inhibit cell growth to 50% of untreated)): 4.59 | pIC50 (PC-3 (prostate); [3]): 4.28 | pIC50 (PC-3 (prostate); Table 10, 96 hours, read-out: IC50 PC-3 (inhibit cell growth to 50% of untreated)): 4.55 | pIC50 (OVCAR-3 (ovary); OVCAR-3, 96 h, Example 18, 4 days, read-out: calculated IC50 OVCAR-3): 4.60 | pIC50 (OVCAR-3 (ovary); [4]): 4.88 | pIC50 (OVCAR-3 (ovary); OVCAR-3, Table 10, 96 hours, read-out: IC50 OVCAR-3 (inhibit cell growth to 50% of untreated)): 4.60 | pIC50 (A549 (lung); [5]): 4.27 | pIC50 (A549 (lung); A549, Table 10, 96 hours, read-out: IC50 A549 (inhibit cell growth to 50% of untreated)): 4.72

COc1cc2[nH]c3ncnc(N4CCN(C(=S)Nc5ccc(S(=O)(=O)NC(C)=O)cc5)CC4)c3c2cc1OC [Compound 1-2, 4-(6,7-Dimethoxy-9H-pyrimido[4,5-b]indol-4-yl)-piperazine-1-carbothioic acid (4-acetylsulfamoyl-phenyl)-amide]
pIC50 (MiaPaCa-2 (pancreas); [1]): 3.76 | pIC50 (U2-OS (osteosarcoma); [2]): 4.14 | pIC50 (PC-3 (prostate); [3]): 3.79 | pIC50 (OVCAR-3 (ovary); [4]): 4.53 | pIC50 (A549 (lung); [5]): 3.71

CC(=O)NS(=O)(=O)c1ccc(NC(=S)N2CCN(c3ncnc4[nH]c5ccc(Cl)cc5c34)CC2)cc1 [Compound 1-3, 4-(6-chloro-9H-pyrimido[4,5-b]indol-4-yl)-piperazine-1-carbothioic acid (4-acetylsulfamoyl-phenyl)-amide]
pIC50 (MiaPaCa-2 (pancreas); [1]): 4.66 | pIC50 (U2-OS (osteosarcoma); [2]): 4.68 | pIC50 (PC-3 (prostate); [3]): 4.33 | pIC50 (OVCAR-3 (ovary); [4]): 4.32 | pIC50 (A549 (lung); [5]): 4.43

CC(=O)NS(=O)(=O)c1ccc(NC(=S)N2CCN(c3ncnc4[nH]c5cc(F)ccc5c34)CC2)cc1 [Compound 1-4]
pIC50 (MiaPaCa-2 (pancreas); [1]): 4.07 | pIC50 (U2-OS (osteosarcoma); [2]): 4.44 | pIC50 (PC-3 (prostate); [3]): 3.80 | pIC50 (OVCAR-3 (ovary); [4]): 4.10 | pIC50 (A549 (lung); [5]): 4.14

COc1cc2c(cc1O)[nH]c1ncnc(N3CCN(C(=S)Nc4ccc(S(=O)(=O)NC(C)=O)cc4)CC3)c12 [Compound 1-8]
pIC50 (OVCAR-3 (ovary); [4]): 4.08

COc1cc2[nH]c3ncnc(N4CCN(C(=S)Nc5ccc(S(=O)(=O)N6CCOCC6)cc5)CC4)c3c2cc1OC [Compound 1-26]
pIC50 (MiaPaCa-2 (pancreas); [1]): 5.05 | pIC50 (U2-OS (osteosarcoma); [2]): 5.16 | pIC50 (PC-3 (prostate); [3]): 4.65 | pIC50 (OVCAR-3 (ovary); [4]): 3.81 | pIC50 (A549 (lung); [5]): 3.89

COc1cc2[nH]c3ncnc(N4CCN(C(=S)Nc5ccc(NC(=O)C6CC6)cc5)CC4)c3c2cc1OC [Compound 1-34]
pIC50 (MiaPaCa-2 (pancreas); [1]): 5.01 | pIC50 (U2-OS (osteosarcoma); [2]): 4.57 | pIC50 (PC-3 (prostate); [3]): 4.66 | pIC50 (OVCAR-3 (ovary); [4]): 3.96 | pIC50 (A549 (lung); [5]): 3.73

COc1cc2[nH]c3ncnc(N4CCN(C(=S)Nc5ccc(NC(C)=O)cc5)CC4)c3c2cc1OC [Compound 1-42]
pIC50 (MiaPaCa-2 (pancreas); [1]): 3.74 | pIC50 (U2-OS (osteosarcoma); [2]): 4.38 | pIC50 (PC-3 (prostate); [3]): 3.72 | pIC50 (OVCAR-3 (ovary); [4]): 4.07 | pIC50 (A549 (lung); [5]): 3.80

COc1cc2[nH]c3ncnc(N4CCN(C(=S)Nc5ccc(S(N)(=O)=O)cc5)CC4)c3c2cc1OC [Compound 1-107]
pIC50 (MiaPaCa-2 (pancreas); [1]): 3.97 | pIC50 (U2-OS (osteosarcoma); [2]): 5.06 | pIC50 (PC-3 (prostate); [3]): 5.63 | pIC50 (OVCAR-3 (ovary); [4]): 3.76 | pIC50 (A549 (lung); [5]): 4.29

COc1cc2[nH]c3ncnc(N4CCN(C(=S)Nc5ccc(S(C)(=O)=O)cc5)CC4)c3c2cc1OC [Compound 1-115]
pIC50 (MiaPaCa-2 (pancreas); [1]): 4.26 | pIC50 (U2-OS (osteosarcoma); [2]): 4.30 | pIC50 (PC-3 (prostate); [3]): 4.12 | pIC50 (OVCAR-3 (ovary); [4]): 3.76 | pIC50 (A549 (lung); [5]): 3.83

COc1cc2[nH]c3ncnc(N4CCN(C(=S)Nc5ccc(S(=O)(=O)Nc6ccc(F)cc6)cc5)CC4)c3c2cc1OC [Compound 2-3, 4-(6,7-dimethoxy-9H-pyrimido[4,5-b]indol-4-yl)-N-(4-(N-(4-fluorophenyl)sulfamoyl)phenyl)piperazine-1-carbothioamide]
pIC50 (MiaPaCa-2 (pancreas); [6]): 5.14 | pIC50 (U2-OS (osteosarcoma); [7]): 5.09 | pIC50 (PC-3 (prostate); [8]): 5.06 | pIC50 (OVCAR-3 (ovary); [9]): 5.04 | pIC50 (A549 (lung); [10]): 4.64

COc1ccc2c(c1)[nH]c1ncnc(N3CCN(C(=S)Nc4ccc(S(=O)(=O)Nc5ccc(F)cc5)cc4)CC3)c12 [Compound 2-5, 4-(7-methoxy-9H-pyrimido[4,5-b]indol-4-yl)-N-(4-(N-(4-fluorophenyl)sulfamoyl)phenyl)piperazine-1-carbothioamide]
pIC50 (MiaPaCa-2 (pancreas); [6]): 5.16 | pIC50 (U2-OS (osteosarcoma); [7]): 5.07 | pIC50 (PC-3 (prostate); [8]): 5.11 | pIC50 (OVCAR-3 (ovary); [9]): 5.17 | pIC50 (A549 (lung); [10]): 5.17

Cc1ccc(NS(=O)(=O)c2ccc(NC(=S)N3CCN(c4ncnc5[nH]c6cc(Cl)c(N7CCOCC7)cc6c45)CC3)cc2)cc1 [Compound 2-9, 4-(7-chloro-6-morpholino-9H-pyrimido[4,5-b]indol-4-yl)-N-(4-(N-tolylsulfamoyl)phenyl)piperazine-1-carbothioamide]
pIC50 (MiaPaCa-2 (pancreas); [6]): 4.57 | pIC50 (U2-OS (osteosarcoma); [7]): 5.07 | pIC50 (PC-3 (prostate); [8]): 5.08 | pIC50 (OVCAR-3 (ovary); [9]): 5.12 | pIC50 (A549 (lung); [10]): 4.71
